Results published in patent US20070213338A1, “Triazolo-Pyridazine Compounds and Derivatives Thereof Useful in the Treatment of Neuropathic Pain” (priority 2003, published 2007).

Test system: nerve injury-induced tactile allodynia
Assay: Spinal Nerve Ligation Model (Chung Model)
Format: in vivo, Male Sprague Dawley rats
Settings: rat, i.p. dosing at 30 mg/kg
Description: The spinal nerve ligation model of neuropathic pain was used to assess the effects of test compounds on nerve injury-induced tactile allodynia (S. H. Kim and J. M. Chung, Pain 50:355-363(1992)). Male Sprague Dawley rats (175-200 g) received unilateral tight ligation of the left L5/L6 spinal nerves distal to the dorsal root ganglion using 4-0 silk suture. Behavioral nociceptive testing occurred 7-14 days following spinal nerve ligation by placing the rats in chambers on a wire mesh. Rats were tested for tactile allodynia (decreased hindpaw withdrawal threshold to non-noxious punctate stimulation) by applying a series of calibrated von Frey filaments to the plantar aspect of the left hindpaw ipsilateral to the site of nerve injury. The mean 50% hindpaw withdrawal threshold (g.) was determined using the Dixon “up-own” non-parametric test (Chaplan et al., J. Neurosci. Methods, 53:55-63(1994)). […] Following determination of pre-drug withdrawal thresholds, rats received either an i.p. or p.o. injection of test compound. The effect of the test compound on tactile allodynia was determined over time by measuring hindpaw withdrawal thresholds 30, 60, 90, 120 min post-injection.

Compound | effect on tactile allodynia (hindpaw withdrawal threshold)
Cc1nnc2c3ccccc3c(OCc3cccc(CNCCc4ccccc4)n3)nn12 [Example 23] | 65%
FC(F)(F)c1nnc2c3ccccc3c(OCc3cccc(CNCCc4ccccc4)n3)nn12 [Example 58, Phenethyl-[6-(3-trifluoromethyl-[1,2,4]triazolo[3,4,-a]phthalazin-6-yloxymethyl)-pyridin-2-ylmethyl]-amine] | 100%
